Results published in patent US4791113A, “Mitomycin derivatives as antileukemia agents” (Kyowa Hakko Kogyo Kabushiki Kaisha, priority 1986, dated 1988).
≈ marks a conversion by molar mass, not a printed value. Like-named read-outs stand apart in the source and are kept apart here.

Key:
in vivo [1] = settings: mouse, ip, single abdominal administration, ddy mice, 14 days, Behrens-Korber's method
Source text: (§1) In this table, C.I. denotes chemotherapeutic index, calculated as C.I.=(LD50)/(ED50), wherein LD50 denotes the value of acute toxicity, and ED50 denotes the dose of a sample which is capable of reducing the volume of Sarcoma 180 solid tumour to 50% of the corresponding volume of the solid tumour of untreated group.
(§2) The test compound was abdominally administered once to ddy mice, each group consisting of 5 animals.

Sarcoma 180 solid tumour = type: in vivo, ddy mouse; settings: C.I.=(LD50)/(ED50), ED50 = dose at T/C=0.5, i.v. (tail vein), 7 days
Source text: as §1, §2
(§3) 5×10^6 cells of Sarcoma 180 solid tumour were abdominally implanted into a ddy mouse. 7 days after this, the cells were collected from the ascites fluid. The cells were washed once with physiological saline under sterile conditions and suspended in physiological saline to obtain a cell suspension containing 5×10^7 cells/ml of which 0.1 ml was implanted into a ddy male mouse (body weight 20±2 g) under the skin of the right armpit. The test compound was dissolved in physiological saline or the same solution containing Tween 80. 24 hours after implantation of the tumour cells, 0.1-0.2 ml of the solution containing the test compound was administered to the tail vein of each animal in the test group consisting of 5 animals. 7 days after the implantation, the major axis (a) and minor axis (b) of the tumour were measured to calculate the volume of the tumour as "a"×"b^2 "/2. The antitumour effect was indicated by T/C which is the ratio of the tumour volume in the test animals to the corresponding volume of the control (untreated) animals.
(§4) T/C ratios and the dose were respectively plotted on the ordinate using an arithmetic scale and on the abscissa using a logarithmic scale, the relationship between the dosage and the T/C ratio being converted to a straight line by the least squares method. From the straight tropic line thus-obtained, the dosage corresponding to a T/C=0.5 viz. ED50 was determined.

in vivo [2] = test: in vivo; parameters: species or system mice (ddy strain); settings: mouse, ip, ratio of dose reducing peripheral leucocytes to 4000 (per mm^3; i.p., 4 days) to ED50 (Sarcoma 180), read-out: (WBC4000)/(ED50)
Source text: as §1, §3, §4
Sarcoma 180 solid tumour cells (5×10^6) were subcutaneously implanted under the skin of the right armpit of each mouse (body weight 20±2 g) of a group consisting of 5 male mice (ddy strain). 24 hours after this, a test compound was intraperitoneally administered to each animal. 4 days later, blood (0.02 ml) was collected from the suborbital plexus vein of each tumour-carrying animal. The collected sample of blood was dispersed in 9.98 ml of Cellkit Seven solution. One drop of saponin solution was added to the sample to dissolve erythrocytes and then a microcell counter was used to measure the number of leucocytes. On graph paper, the number of leucocytes was plotted on the ordinate using an arithmetic scale, and the dosage was plotted on the abscissa using a logarithmic scale to show the relationship of the dosage to the number of peripheral leucocytes, from which the value of WBC4000 viz. a value capable of giving 4000 peripheral leucocytes per mm^3 (about half of the corresponding value in normal mice) was obtained.

Hela S3 cultured cells = test: Effects upon Hela S3 cultured cells; type: cell-based; settings: Homo sapiens
Protocol: Table 3 indicates the effects of typical Compounds (I) against Hela S3 culture cells. In this table, IC50 denotes the concentration of the test compound capable of reducing the number of cells to 50% the number of untreated cells.
Cultured cells of Hela S3 were added to a MEM medium containing 10% (V/V) of bovine fetal serum and […] of glutamine to obtain a cell suspension of 3×10^4 cells/ml. The cell suspension was poured into each well (1 ml/well) of a 24 well-multiplate for culturing at 37° C. in an incubator containing carbon dioxide (5%) and air (95%). After 24 hours, samples were dissolved or suspended in PBS, ethanol or dimethylsulfoxide and added to the medium at different concentrations, followed by culturing at 37° C. for 72 hours in the same incubator. An aspirator was used to collect the medium from each well. The surface of each medium was washed by adding PBS (1 ml) gently, and then PBS was sucked out. PBS containing trypsin (0.05%) and EDTA (0.02%) was poured into each well. After pipetting, the number of cells in each suspension was counted by the use of a microcell counter (commercial product of Toa Iyo Denshi K.K., Japan). By reference to a curve showing the concentration vs. the number of cells, the IC50 (concentration of sample capable of reducing the number of cells to 50% of the number of control untreated cells) was measured.

SMILES | LD50 at 336 h (in vivo [1]) [mg/kg] | C.I. (chemotherapeutic index) (Sarcoma 180 solid tumour) | selectivity ratio (in vivo [2]) | IC50 (Hela S3 cultured cells; HeLa S3, 72 h) [µg/mL] | IC50 (Hela S3 cultured cells; concentration reducing number of Hela S3 cells to 50% of untreated, 72 hours at 37° C., read-out: IC50) [µg/mL]
CO[C@@]12[C@H](CO)c3c(O)c(N=O)c(C)c(O)c3N1C[C@@H]1N[C@@H]12 [Example 4, [1aS-(1aα, 8β, 8aα, 8bα)]-4,7-dihydroxy-1,1a,2,8,8a,8b-hexahydro-8-hydroxymethyl-8a-methoxy-5-methyl-6-nitroso-azirino [2',3':3,4]pyrrolo[1,2-a]indole] | 100 | 2.8 | > 1.4 | – | –
CO[C@@]12[C@H](COC(N)=O)c3c(O)c(N=O)c(C)c(OS(=O)(=O)c4ccc(C)cc4)c3N1C[C@@H]1N[C@@H]12 [Example 15, [1aS-(1aα,8β,8aα,8bα)]-8-{[(aminocarbonyl)oxy]methyl}-1,1a,2,8,8a,8b-hexahydro-7-hydroxy-8a-methoxy-5-methyl-6-nitroso-4-[(p-toluenesuIfonyl)oxy]azirino[2',3':3,4]pyrrolo[1,2-a]indole] | 56 | 2.6 | 3.9 | 0.027 (≈ 0.0535 µM) | –
CO[C@@]12[C@H](COC(N)=O)c3c(O)c(N=O)c(C)c(O)c3N1C[C@@H]1N[C@@H]12 [Example 1, [1aS-(1aα,8β,8aα,8bα)]-8-{[(aminocarbonyl)oxy]methyl}-4,7-dihydroxy-1,1a,2,8,8a,8b-hexahydro-8a-methoxy-5-methyl-6-nitroso-azirino[2',3':3,4]pyrrolo[1,2-a]indole] | 53 | 2.0 | 0.7 | 1.14 (≈ 3.24 µM) | –
COc1c(C)c(N=O)c(O)c2c1N1C[C@H]3[C@H](N3C)[C@]1(O)[C@H]2COC(N)=O (some centres unmarked) [Example 10] | > 100 | > 0.56 | > 0.56 | 0.004 (≈ 0.011 µM) | –
CO[C@@]12[C@H](COC(N)=O)c3c(O)c(N=O)c(C)c(OC(C)=O)c3N1C[C@H]1[C@@H]2N1C(C)=O [Example 11, [1aS-(1aα, 8β, 8aα, 8bα)]-1-acetyl-4-acetyloxy-8-{[(aminocarbonyl)oxy]methyl}-1,1a,2,8,8a,8b-hexahydro-7-hydroxy-8a-methoxy-5-methyl-6-nitroso-azirino[2',3':3,4]pyrrolo[1,2-a]indole] | 38 | 2.0 | 0.9 | – | 0.02 (≈ 0.046 µM)
COc1c(C)c(N=O)c(O)c2c1N1C[C@@H]3N[C@@H]3[C@]1(OC)[C@@H]2COC(N)=O [Example 6] | 75 | 5.6 | 2.7 | 0.005 (≈ 0.0137 µM) | –
CO[C@@]12[C@H](COC(N)=O)c3c(O)c(N=NC(=S)SC)c(C)c(O)c3N1C[C@@H]1N[C@@H]12 [Example 31] | 50 | 2.5 | 1.1 | – | –
CO[C@@]12[C@H](COC(N)=O)c3c(O)c(N=NC4=NCCN4)c(C)c(O)c3N1C[C@@H]1N[C@@H]12 [Example 23, [1aS-(1aα,8β, 8aα,8bα)]-8-{[(aminocarbonyl)oxy]methyl}-4,7-dihydroxy-1,1a,2,8,8a,8b-hexahydro-6[(2"- imidazolinyl)azo]-8a-methoxy-5-methyl-azirino[2',3':3,4]pyrrolo[1,2-a]indol] | > 100 | > 0.6 | 0.5 | 0.162 (≈ 0.388 µM) | –
COc1c(N=O)c(C)c(OC)c2c1[C@@H](COC(N)=O)[C@@]1(OC)[C@H]3N[C@H]3CN21 [Example 8, [1aS-(1aα, 8β, 8aα, 8bα)]-8-{[(aminocarbonyl)oxy]methyl}-1,1a,2,8,8a,8b-hexahydro-5-methyl-6-nitroso-4,7,8a-trimethoxy-azirino [2',3':3,4]pyrrolo[1,2-a]indole] | 100 | 2.1 | 1.1 | 0.2 (≈ 0.529 µM) | –
CO[C@@]12[C@H](COC(N)=O)c3c(O)c(N=NC(=O)c4ccccc4)c(C)c(O)c3N1C[C@H]1[C@@H]2N1C (stereo partly drawn) [Example 21, [1aS-(1aα,8β,8aα,8bα)]-8-{[(aminocarbonyl)oxy]methyl}-6-[(benzoyl)azo]-4,7-dihydroxy-1,5-dimethyl-1,1a,2,8,8a,8b-hexahydro-8a-methoxy-azirino[2',3':3,4]pyrrolo[1,2-a]indole] | > 100 | > 1.0 | 0.62 | 0.75 (≈ 1.6 µM) | –
CO[C@@]12[C@H](COC(N)=O)c3c(O)c(N=O)c(C)c(OCC(C)C)c3N1C[C@@H]1N[C@@H]12 [Example 13, [1aS-(1aα, 8β, 8aα, 8bα)]-8-{[(aminocarbonyl)oxy]methyl}-1,1a,2,8,8a,8b-hexahydro-7-hydroxy-4-isobutyloxy-8a-methoxy-5-methyl-6-nitroso-azirino[2',3':3,4]pyrrolo[1,2-a]indole] | > 100 | > 0.74 | > 0.74 | – | –
